Reference: US20050272752A1, “Complexes of E-2-Methoxy-N-(3-{4-[3-methyl-4-(6-methyl-pyridin-3-yloxy)-phenylamino]-quinazolin-6-yl}-allyl)-acetamide and methods of preparing same” (Pfizer Inc, priority 2004, published 2005)

Legend:
[1] = tested on: transplanted human mammary carcinoma which expresses epidermal growth factor receptor tyrosine kinase (EGFR); conditions: EGFR-expressing carcinoma in athymic nude mice; cited from earlier work
[2] = tested on: another carcinoma which does not express the EGF receptor; conditions: cited from earlier work
[3] = hygroscopic stability of the sesquisuccinate complex; format: physicochemical; conditions: solid complex; relevant to weight changes during manufacture of capsules or tablets

Row | Structure (SMILES) | growth of transplanted human mammary carcinoma [1] | growth of carcinoma not expressing the EGF receptor [2] | hygroscopic stability [3]
1 | O=CN/C=C/c1cc(O)ccc1O [erbstatin] | selectively attenuates the growth | without effect on the growth | –
2 | COCC(=O)NC/C=C/c1ccc2ncnc(Nc3ccc(Oc4ccc(C)nc4)c(C)c3)c2c1 [sesquisuccinate complex, E-2-Methoxy-N-(3-{4-[3-methyl-4-(6-methyl-pyridin-3-yloxy)-phenylamino]-quinazolin-6-yl}-allyl)-acetamide] | – | – | substantially hygroscopically stable
